Read-outs that look alike come from different tables or passages of the source. Starred links: 1 amine or outer side, 2 acyl side, 3 side chain; linkers in the order of their positions; H or OH if unused. Non-standard residues stand in square brackets, D forms with d. Residues, ends and D or L forms follow the SMILES beside them. Groups on a side chain read outwards from the residue. *: point of attachment. C20 diacid = O=C(O)CCCCCCCCCCCCCCCCCCC(=O)*; C18 diacid = O=C(O)CCCCCCCCCCCCCCCCC(=O)*; γGlu = O=C(O)[C@H](CCC(=O)[*:2])N[*:1]; Stearoyl = CCCCCCCCCCCCCCCCCC(=O)*; αMeF = C[C@](N)(Cc1ccccc1)C(=O)O; AEEA = NCCOCCOCC(=O)O; Aib = CC(C)(N)C(=O)O
Key:
[1] = target: human GLP-1 receptor (hGLP-1R) (Homo sapiens, UniProt P43220); test: cAMP production (HTRF) in CHO cells expressing hGLP-1R; type: cell-based; set-up: expressed in transfected cells; conditions: for EC50: geometric mean, read-out: hGLP-1R EC50; for % Relative Potency Ratio: % GLP-1R activity relative to GLP-1 / % GlucR activity relative to glucagon
Method in brief: (§1)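 Cells were resuspended in assay buffer at batch-optimized density, typically 1×10^5 cells/mL for hGLP-1R and 2×10^5 cells/mL for hGCGR. After 30 min incubation at room temperature with compound, cAMP was measured by two-step HTRF. EC50 values came from 4-parameter logistic fits of % Delta F.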

[2] = Mouse acute food intake study; type: in vivo; conditions: male C57Bl/6 mice, s.c., cumulative food intake at 24 hr vs vehicle
Protocol: Male C57Bl/6 mice obtained from Jackson Laboratories or Charles River at 8-9 weeks of age and were housed one per cage in BioDaq (Research Diets) cages. Mice were placed on Alpha Dri bedding, standard chow diet (Envigo, 2018) and given water pouches. Mice were allowed to acclimate for 1-2 weeks. Body weight was measured to ensure appropriate acclimation. After acclimation, mice were sham dosed a minimum of 2 times prior to initiation of food intake study. On study day, mice were placed in clean cage bottoms, weighed, and fasted for 6-8 hours. Mice were sorted into groups based on average 24-hour food intake data and body weight. 1-2 hours prior to lights out, mice were dosed subcutaneously with one vehicle or test peptide dissolved in an appropriate vehicle at 5 mL/kg. Mice were left undisturbed and allowed access to food and water for 48 hours. Automated food intake was monitored in the BioDaq system was monitored during this time. Discrete food intake data was exported into MS Excel from which cumulative food intake data was generated and analyzed.

[3] = target: human glucagon receptor (hGCGR) (Homo sapiens, UniProt P47871); test: cAMP production (HTRF) in CHO cells expressing hGCGR; type: cell-based; set-up: expressed in transfected cells; conditions: geometric mean, read-out: hGluc-R EC50
Method in brief: as §1

[4] = Table 7, peptides modified at position 20, cAMP in CHO hGLP-1R cells
[5] = Table 7, peptides modified at position 20, cAMP in CHO hGCGR cells

Sequence of human glucagon receptor (hGCGR) (P47871 26-477): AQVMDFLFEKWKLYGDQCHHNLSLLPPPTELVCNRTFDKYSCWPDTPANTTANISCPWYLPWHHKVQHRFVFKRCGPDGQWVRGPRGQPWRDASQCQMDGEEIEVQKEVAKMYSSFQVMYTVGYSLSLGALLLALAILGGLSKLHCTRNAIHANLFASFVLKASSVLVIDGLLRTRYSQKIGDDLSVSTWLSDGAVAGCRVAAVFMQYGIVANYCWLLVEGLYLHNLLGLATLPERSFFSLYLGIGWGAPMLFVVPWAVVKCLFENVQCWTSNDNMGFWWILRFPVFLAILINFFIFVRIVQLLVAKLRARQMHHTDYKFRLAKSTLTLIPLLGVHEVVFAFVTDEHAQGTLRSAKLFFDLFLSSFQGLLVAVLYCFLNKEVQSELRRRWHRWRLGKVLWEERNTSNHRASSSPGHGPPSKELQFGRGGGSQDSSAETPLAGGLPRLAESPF
Sequence of human GLP-1 receptor (hGLP-1R) (P43220 24-463): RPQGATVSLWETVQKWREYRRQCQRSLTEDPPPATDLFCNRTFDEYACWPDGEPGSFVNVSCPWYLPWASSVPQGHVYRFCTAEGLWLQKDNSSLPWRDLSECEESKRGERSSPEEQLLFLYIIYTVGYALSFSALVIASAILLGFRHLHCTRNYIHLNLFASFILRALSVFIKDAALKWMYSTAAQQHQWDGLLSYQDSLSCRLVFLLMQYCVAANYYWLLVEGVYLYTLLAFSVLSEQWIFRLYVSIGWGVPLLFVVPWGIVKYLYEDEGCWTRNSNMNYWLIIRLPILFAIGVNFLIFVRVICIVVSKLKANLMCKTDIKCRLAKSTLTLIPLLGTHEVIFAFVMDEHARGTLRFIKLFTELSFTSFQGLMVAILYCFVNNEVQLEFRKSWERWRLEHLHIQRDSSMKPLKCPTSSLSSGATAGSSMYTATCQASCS

SMILES | EC50 [1, 4] [pM] | % Relative Potency Ratio ([1]; Table 7) | EC50 [3, 5] [pM] | % Relative Potency Ratio [1] | EC50 ([1]; cAMP, CHO cells, 0.1% BSA) [pM] | EC50 ([3]; cAMP, CHO cells, 0.1% BSA) [pM] | 24 hr % Vehicle Food Intake ([2]; dose 3 nmol/kg) [%] | 24 hr % Vehicle Food Intake ([2]; dose 10 nmol/kg) [%] | 24 hr % Vehicle Food Intake ([2]; dose 30 nmol/kg) [%]
CCCCCCCCCCCCCCCCCC(=O)N[C@@H](CCC(=O)N[C@@H](CCC(=O)NCCOCCOCC(=O)NCCOCCOCC(=O)NCCCC[C@H](NC(=O)[C@H](C)NC(=O)[C@H](C)NC(=O)[C@H](CCCNC(=N)N)NC(=O)[C@H](CO)NC(=O)[C@H](CC(=O)O)NC(=O)[C@H](CC(C)C)NC(=O)[C@](C)(Cc1ccccc1)NC(=O)[C@H](CCCCN)NC(=O)[C@H](CO)NC(=O)[C@@H](NC(=O)[C@H](CC(=O)O)NC(=O)[C@H](CO)NC(=O)[C@@H](NC(=O)[C@](C)(Cc1ccccc1)NC(=O)[C@H](CO)NC(=O)CNC(=O)[C@H](Cc1c[nH]cn1)NC(=O)C(C)(C)NC(=O)[C@@H](N)Cc1c[nH]cn1)[C@@H](C)O)C(C)C)C(=O)N[C@@H](CC(=O)O)C(=O)N[C@@](C)(Cc1ccccc1)C(=O)N[C@H](C(=O)N[C@@H](CCC(N)=O)C(=O)NC(C)(C)C(=O)N[C@H](C(=O)N[C@@H](C)C(=O)N[C@@H](CC(N)=O)C(=O)N[C@H](C(N)=O)[C@@H](C)O)[C@@H](C)CC)C(C)C)C(=O)O)C(=O)O [Peptide 257] (H-H[Aib]HGS[αMeF]TSDVSK[αMeF]LDSRAAK([AEEA-AEEA-γGlu-γGlu-Stearoyl])D[αMeF]VQ[Aib]IANT-NH2) | 7.35 | 0.4 | 1.66 | – | – | – | 94.7 | 96.5 | –
CC[C@H](C)[C@H](NC(=O)C(C)(C)NC(=O)[C@H](CCC(N)=O)NC(=O)[C@@H](NC(=O)[C@](C)(Cc1ccccc1)NC(=O)[C@H](CC(=O)O)NC(=O)[C@H](CCCCNC(=O)COCCOCCNC(=O)COCCOCCNC(=O)CC[C@H](NC(=O)CCCCCCCCCCCCCCCCC(=O)O)C(=O)O)NC(=O)[C@H](C)NC(=O)[C@H](C)NC(=O)[C@H](CCCNC(=N)N)NC(=O)[C@H](CO)NC(=O)[C@H](CC(=O)O)NC(=O)[C@H](CC(C)C)NC(=O)[C@](C)(Cc1ccccc1)NC(=O)[C@H](CCCCN)NC(=O)[C@H](CO)NC(=O)[C@@H](NC(=O)[C@H](CC(=O)O)NC(=O)[C@H](CO)NC(=O)[C@@H](NC(=O)[C@](C)(Cc1ccccc1)NC(=O)[C@H](CO)NC(=O)CNC(=O)[C@H](Cc1c[nH]cn1)NC(=O)C(C)(C)NC(=O)[C@@H](N)Cc1c[nH]cn1)[C@@H](C)O)C(C)C)C(C)C)C(=O)N[C@@H](C)C(=O)N[C@@H](CCC(=O)O)C(=O)N[C@H](C(N)=O)[C@@H](C)O [Peptide 300] (H-H[Aib]HGS[αMeF]TSDVSK[αMeF]LDSRAAK([AEEA-AEEA-γGlu-C18 diacid])D[αMeF]VQ[Aib]IAET-NH2) | 19.7 | 1.8 | 18.4 | – | – | – | – | 45.2 | –
CC[C@H](C)[C@H](NC(=O)C(C)(C)NC(=O)[C@H](C)NC(=O)[C@@H](NC(=O)[C@](C)(Cc1ccccc1)NC(=O)[C@H](CC(=O)O)NC(=O)[C@H](CCCCNC(=O)COCCOCCNC(=O)COCCOCCNC(=O)CC[C@H](NC(=O)CC[C@H](NC(=O)CCCCCCCCCCCCCCCCCCC(=O)O)C(=O)O)C(=O)O)NC(=O)[C@H](C)NC(=O)[C@H](C)NC(=O)[C@H](CCCNC(=N)N)NC(=O)[C@H](CO)NC(=O)[C@H](CC(=O)O)NC(=O)[C@H](CC(C)C)NC(=O)[C@](C)(Cc1ccccc1)NC(=O)[C@H](CCCCN)NC(=O)[C@H](CO)NC(=O)[C@@H](NC(=O)[C@H](CC(=O)O)NC(=O)[C@H](CO)NC(=O)[C@@H](NC(=O)[C@](C)(Cc1ccccc1)NC(=O)[C@H](CO)NC(=O)CNC(=O)[C@H](Cc1c[nH]cn1)NC(=O)C(C)(C)NC(=O)[C@@H](N)Cc1c[nH]cn1)[C@@H](C)O)C(C)C)[C@@H](C)CC)C(=O)N[C@@H](C)C(=O)N[C@@H](CCC(=O)O)C(=O)N[C@H](C(N)=O)[C@@H](C)O [Peptide 302] (H-H[Aib]HGS[αMeF]TSDVSK[αMeF]LDSRAAK([AEEA-AEEA-γGlu-γGlu-C20 diacid])D[αMeF]IA[Aib]IAET-NH2) | 151 | 3.5 | 271 | – | – | – | – | – | 46.4
CC[C@H](C)[C@H](NC(=O)[C@H](Cc1c[nH]c2ccccc12)NC(=O)[C@H](CCCCNC(=O)COCCOCCNC(=O)COCCOCCNC(=O)CC[C@H](NC(=O)CC[C@H](NC(=O)CCCCCCCCCCCCCCCCC(=O)O)C(=O)O)C(=O)O)NC(=O)[C@@H](NC(=O)[C@H](Cc1ccccc1)NC(=O)[C@H](CC(=O)O)NC(=O)[C@H](CCC(N)=O)NC(=O)[C@H](C)NC(=O)[C@H](C)NC(=O)[C@H](CCCNC(=N)N)NC(=O)[C@H](CO)NC(=O)[C@H](CC(=O)O)NC(=O)[C@H](CC(C)C)NC(=O)[C@](C)(Cc1ccccc1)NC(=O)[C@H](CCCCN)NC(=O)[C@H](CO)NC(=O)[C@@H](NC(=O)[C@H](CC(=O)O)NC(=O)[C@H](CO)NC(=O)[C@@H](NC(=O)[C@](C)(Cc1ccccc1)NC(=O)[C@H](CO)NC(=O)CNC(=O)[C@H](Cc1c[nH]cn1)NC(=O)C(C)(C)NC(=O)[C@@H](N)Cc1c[nH]cn1)[C@@H](C)O)C(C)C)C(C)C)C(=O)N[C@@H](C)C(=O)N[C@@H](CC(N)=O)C(=O)N[C@H](C(=O)NCC(=O)NCC(N)=O)[C@@H](C)O [Peptide 364] (H-H[Aib]HGS[αMeF]TSDVSK[αMeF]LDSRAAQDFVK([AEEA-AEEA-γGlu-γGlu-C18 diacid])WIANTGG-NH2) | – | – | – | 2.6 | 23.4 | 30.4 | – | 63.7 | –

Continued, in another order:

EC50 [1, 4] [pM] | % Relative Potency Ratio ([1]; Table 7) | EC50 [3, 5] [pM] | % Relative Potency Ratio [1] | EC50 ([1]; cAMP, CHO cells, 0.1% BSA) [pM] | EC50 ([3]; cAMP, CHO cells, 0.1% BSA) [pM] | SMILES | 24 hr % Vehicle Food Intake ([2]; dose 3 nmol/kg) [%] | 24 hr % Vehicle Food Intake ([2]; dose 10 nmol/kg) [%] | 24 hr % Vehicle Food Intake ([2]; dose 30 nmol/kg) [%]
– | – | – | 1.7 | 31 | 27.4 | CC[C@H](C)[C@H](NC(=O)C(C)(C)NC(=O)[C@H](CCCCNC(=O)COCCOCCNC(=O)COCCOCCNC(=O)CC[C@H](NC(=O)CCCCCCCCCCCCCCCCC(=O)O)C(=O)O)NC(=O)[C@@H](NC(=O)[C@H](Cc1ccccc1)NC(=O)[C@H](CC(=O)O)NC(=O)[C@H](CCC(N)=O)NC(=O)[C@H](C)NC(=O)[C@H](C)NC(=O)[C@H](CCCNC(=N)N)NC(=O)[C@H](CO)NC(=O)[C@H](CC(=O)O)NC(=O)[C@H](CC(C)C)NC(=O)[C@](C)(Cc1ccccc1)NC(=O)[C@H](CCCCN)NC(=O)[C@H](CO)NC(=O)[C@@H](NC(=O)[C@H](CC(=O)O)NC(=O)[C@H](CO)NC(=O)[C@@H](NC(=O)[C@](C)(Cc1ccccc1)NC(=O)[C@H](CO)NC(=O)CNC(=O)[C@H](Cc1c[nH]cn1)NC(=O)C(C)(C)NC(=O)[C@@H](N)Cc1c[nH]cn1)[C@@H](C)O)C(C)C)C(C)C)C(=O)N[C@@H](C)C(=O)N[C@@H](CC(N)=O)C(=O)N[C@H](C(N)=O)[C@@H](C)O [Peptide 366] (H-H[Aib]HGS[αMeF]TSDVSK[αMeF]LDSRAAQDFVK([AEEA-AEEA-γGlu-C18 diacid])[Aib]IANT-NH2; N-terminus assumed) | – | 83.5 | –
– | – | – | 1.4 | 225 | 155 | CC[C@H](C)[C@H](NC(=O)C(C)(C)NC(=O)[C@H](CCCCNC(=O)COCCOCCNC(=O)COCCOCCNC(=O)CC[C@H](NC(=O)CC[C@H](NC(=O)CCCCCCCCCCCCCCCCCCC(=O)O)C(=O)O)C(=O)O)NC(=O)[C@@H](NC(=O)[C@](C)(Cc1ccccc1)NC(=O)[C@H](CC(=O)O)NC(=O)[C@H](CCC(N)=O)NC(=O)[C@H](C)NC(=O)[C@H](C)NC(=O)[C@H](CCCNC(=N)N)NC(=O)[C@H](CO)NC(=O)[C@H](CC(=O)O)NC(=O)[C@H](CC(C)C)NC(=O)[C@](C)(Cc1ccccc1)NC(=O)[C@H](CCCCN)NC(=O)[C@H](CO)NC(=O)[C@@H](NC(=O)[C@H](CC(=O)O)NC(=O)[C@H](CO)NC(=O)[C@@H](NC(=O)[C@](C)(Cc1ccccc1)NC(=O)[C@H](CO)NC(=O)CNC(=O)[C@H](Cc1c[nH]cn1)NC(=O)C(C)(C)NC(=O)[C@@H](N)Cc1c[nH]cn1)[C@@H](C)O)C(C)C)C(C)C)C(=O)N[C@@H](C)C(=O)N[C@@H](CC(N)=O)C(=O)N[C@H](C(N)=O)[C@@H](C)O [Peptide 375] (H-H[Aib]HGS[αMeF]TSDVSK[αMeF]LDSRAAQD[αMeF]VK([AEEA-AEEA-γGlu-γGlu-C20 diacid])[Aib]IANT-NH2; N-terminus assumed) | – | 66.0 | –

From US20250353891A1 (MEDIMMUNE LIMITED, priority 2022, published 2025)
